Test results as given in publication PMC5641083, “Blockage of FOXP3 transcription factor dimerization and FOXP3/AML1 interaction inhibits T regulatory cell activity: sequence optimization of a peptide inhibitor” (Oncotarget, 2017).

How the values were obtained:
[1] = test system: FOXP3-6His (native FOXP3, 1-421); test: Surface plasmon resonance, peptide binding to FOXP3-coated chip; details: FOXP3 coated on chip; mutants compared with original P60
Procedure: Using truncated versions of FOXP3, we attempted to identify the FOXP3 domain interacting with peptide P60, described previously by or group as a FOXP3 inhibitory peptide. Thus, besides native FOXP3 we prepared the deletion mutants FOXP3 (1-331) (lacking the C-terminus of FOXP3), FOXP3 (177-421) (lacking the N-terminus) and FOXP3 (1-177) (encompassing only the N-terminus of FOXP3) (Figure 1A). They were coated on a chip for SPR experiments.
Screening of peptide binding to FOXP3 was performed by surface plasmon resonance (SPR) using ProteOn XPR36 (Bio-Rad, Hercules CA, USA) optical biosensor. Recombinant protein FOXP3-6His and the indicated truncated versions of FOXP3 were produced and purified from E-coli and immobilized covalently onto a GLM sensor chip (Bio-Rad) using sulfo-NHS and EDC (Bio-Rad) coupling reagents. After protein immobilization, chip surface was treated with ethanolamine to deactivate the excess of reactive esters. Individual peptide solutions (1–20 μM) were injected by triplicate in running buffer (Phosphate buffered saline, 0.005% (v/v) Tween 20, pH 7.4) at a flow of 30 μl/min. The interspot signal (obtained in the chip surface not immobilized with protein) was used as reference.

FOXP3/AML1 interaction = target: T1, FOXP3/AML1 interaction (Homo sapiens, UniProt Q9BZS1); test: AlphaScreen FOXP3/AML1 heterodimerization assay; assay type: biochemical
T1 sequence (Q9BZS1 1-431): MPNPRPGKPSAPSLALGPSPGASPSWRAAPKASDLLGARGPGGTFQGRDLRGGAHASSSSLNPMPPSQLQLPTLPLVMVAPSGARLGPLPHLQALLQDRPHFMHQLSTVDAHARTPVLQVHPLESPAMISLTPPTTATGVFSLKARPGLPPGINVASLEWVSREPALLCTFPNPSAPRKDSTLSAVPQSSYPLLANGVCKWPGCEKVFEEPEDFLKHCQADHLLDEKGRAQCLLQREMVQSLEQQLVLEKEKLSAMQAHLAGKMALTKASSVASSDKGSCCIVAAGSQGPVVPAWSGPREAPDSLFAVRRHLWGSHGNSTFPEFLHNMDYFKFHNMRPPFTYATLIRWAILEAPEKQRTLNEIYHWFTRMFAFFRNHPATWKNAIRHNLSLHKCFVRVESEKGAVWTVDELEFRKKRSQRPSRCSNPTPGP
Excerpt: AML1 is required for IL-2 and IFN-γ gene expression in conventional CD4+ T cells and its interaction with FOXP3 is needed for the immunosuppressive activity of Tregs. On the other hand, it has been described that the leucine zipper region is necessary and sufficient to mediate FOXP3 homo-dimerization, which is required for its function as a transcriptional regulator [13, 15, 20]. Thus, since P60 binds to this FOXP3 intermediate region, we analyzed if it could act as a decoy molecule to inhibit FOXP3 homodimerization or the FOXP3-AML1 heterodimerization. The capacity of FOXP3 to homodimerize was measured using the […] assay platform AlphaScreen™ (Perkin Elmer). Previous protein-cross titration experiment using different concentrations of FOXP3-6His (from 1000 to 0 nM) and GST-FOXP3 (from 300 to 0 nM) allowed us to define the optimal protein concentrations to analyze FOXP3 homodimerization (Figure 2A). […] We also tested if GST tagged FOXP3 was able to interact with AML1 protein tagged with 6 His at the N-terminus. As shown in the cross titration experiments in Figure 2C, a specific FOXP3-AML1 heterodimerization was visualized as an increase in the AlphaScreen signal.
FOXP3/AML1 heterodimerization, as well as FOXP3/FOXP3 homodimerization were analyzed by Alphascreen technology according to the manufacturer's instructions (Perkin Elmer, Benelux) as previously described.

Treg cells = test: Treg pre-treated with peptide, then Treg suppression assay; assay type: cell-based; details: Treg incubated with peptide at 20 μM for 24 hours, washed
Excerpt: FOXP3 is critical for the development and function of Tregs, but also, FOXP3 can be transiently expressed in effector T cells after TCR stimulation leading to hyporesponsiveness of the effector T cell. […] We speculate that the Foxp3 inhibitory peptides may work at two levels: (i) reducing Treg function and (ii) releasing the brake of FOXP3 transient expression on effector T cells. Thus, we studied the effect of CM-1315 in T cell proliferation and IL-2 and IFN-γ production in effector T cells in response to anti-CD3 stimulation. The original P60, the optimized peptide CM-1315 and a control peptide were tested. […] We also studied the effect of the peptides directly in Tregs. Thus, freshly isolated Treg cells were pre-treated with the peptides for 24 h, and after extensive washing, they were used in conventional Treg suppression assay in coculture with effector T cells and anti-CD3 stimulation.
Supplementary Figure 4: Effect of Foxp3 inhibitory peptides in effector T cells alone. […] T cell proliferation (A) and IL-2 and IFN-γ (B and C) production in response to anti-CD3 stimulation was measured by 3H-thymidine incorporation and by ELISA respectively.
Supplementary Figure 5: Effect of FOXP3 inhibitory peptides in Treg cells. […] T cell proliferation was measured by 3H-thymidine incorporation assay. […]

H-RDFQSFRKMWPFFAM-OH [P60]
FOXP3 binding capacity by SPR (in words) [1]: bound with high affinity
Inhibition of FOXP3-AML1 heterodimerization (in words) (FOXP3/AML1 interaction): able to reduce the signal in a dose dependent manner
Inhibition of suppressive activity of pre-treated Treg (in words) (Treg cells): not able to inhibit significantly Treg cells, although some reversal of suppression was observed
